Reference: ChEMBL document CHEMBL5143563, “Discovery of DS-3801b, a non-macrolide GPR38 agonist with N-methylanilide structure” (Bioorg Med Chem Lett, 2022)

How the values were obtained:
[1] = target: T1, CYP3A4 (Homo sapiens, UniProt P08684); assay: Inhibition of CYP3A4 in human liver microsomes assessed as remaining activity; format: ADME, Microsome; set-up: concentration or dose not given beside the values
[2] = target: T2, Motilin receptor (Homo sapiens, UniProt O43193); assay: Agonist activity at human GPR38 expressed in COS-7 cells; format: functional, cell-based
[3] = Agonist activity at rabbit GPR38 expressed in COS-7 cells; format: cell-based; conditions: Oryctolagus cuniculus
[4] = Ex vivo agonist activity at GPR38 in rabbit duodenum muscle tissue assessed as intestinal contractile activity; format: tissue-based, Oryctolagus cuniculus
[5] = Lipophilicity, logD of the compound at pH 7.4; conditions: buffer
[6] = target: T2, Motilin receptor; assay: Potency index, ratio of GSK962040 EC50 to test compound EC50 for human GPR38 expressed in COS-7 cells; format: functional, cell-based
[7] = Protein binding in human; format: ADME; conditions: read-out: PB (converted)
[8] = Protein binding in rabbit; format: ADME, Oryctolagus cuniculus; conditions: read-out: PB (converted)
[9] = target: CYP2D6 (Homo sapiens, UniProt P10635); assay: Inhibition of CYP2D6 (unknown origin) at 10 uM; format: ADME
[10] = Effective permeability of the compound at pH 7.4 by PAMPA assay; format: ADME; conditions: read-out: Peff
[11] = target: T1, CYP3A4; assay: Inhibition of CYP3A4 (unknown origin) at 10 uM; format: ADME
[12] = target: CYP2C9 (Homo sapiens, UniProt P11712); assay: Inhibition of CYP2C9 (unknown origin) at 10 uM; format: ADME
[13] = organism: Oryctolagus cuniculus; assay: Potency index, ratio of GSK962040 EC50 to test compound EC50 for Ex vivo agonist activity at GPR38 in rabbit duodenum muscle tissue; format: tissue-based
[14] = Effective permeability of the compound at pH 5 by PAMPA assay; format: ADME; conditions: read-out: Peff
[15] = target: T3, CYP1A2 (Homo sapiens, UniProt P05177); assay: Inhibition of CYP1A2 (unknown origin) at 10 uM; format: ADME
T3 sequence (P05177 whole entry): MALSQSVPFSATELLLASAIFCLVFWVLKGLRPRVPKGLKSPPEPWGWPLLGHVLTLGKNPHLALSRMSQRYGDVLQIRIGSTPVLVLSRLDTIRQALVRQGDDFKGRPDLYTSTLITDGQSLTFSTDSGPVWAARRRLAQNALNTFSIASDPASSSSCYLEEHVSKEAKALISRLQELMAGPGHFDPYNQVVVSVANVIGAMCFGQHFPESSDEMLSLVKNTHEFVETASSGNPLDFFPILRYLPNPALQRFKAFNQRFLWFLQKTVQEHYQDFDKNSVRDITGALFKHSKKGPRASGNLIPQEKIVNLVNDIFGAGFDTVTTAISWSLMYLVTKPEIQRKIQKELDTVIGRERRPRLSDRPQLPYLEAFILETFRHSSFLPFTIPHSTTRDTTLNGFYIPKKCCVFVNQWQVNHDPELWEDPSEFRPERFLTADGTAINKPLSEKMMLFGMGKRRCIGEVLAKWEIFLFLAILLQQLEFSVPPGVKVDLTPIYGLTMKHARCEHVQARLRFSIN

T1 sequence (P08684 whole entry): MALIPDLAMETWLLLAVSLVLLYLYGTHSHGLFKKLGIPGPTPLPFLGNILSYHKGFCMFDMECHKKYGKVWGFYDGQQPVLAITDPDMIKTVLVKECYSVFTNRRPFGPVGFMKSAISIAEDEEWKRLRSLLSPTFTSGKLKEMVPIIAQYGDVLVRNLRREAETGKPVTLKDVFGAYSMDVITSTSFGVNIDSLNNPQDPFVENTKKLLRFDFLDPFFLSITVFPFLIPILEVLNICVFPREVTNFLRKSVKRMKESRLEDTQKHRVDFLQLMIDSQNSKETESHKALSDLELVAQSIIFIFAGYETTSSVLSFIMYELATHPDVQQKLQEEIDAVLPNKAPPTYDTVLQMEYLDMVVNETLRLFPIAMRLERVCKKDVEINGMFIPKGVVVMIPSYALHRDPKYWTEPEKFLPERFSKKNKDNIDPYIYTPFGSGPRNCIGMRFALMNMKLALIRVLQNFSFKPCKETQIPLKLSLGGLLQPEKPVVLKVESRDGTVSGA
T2 sequence (O43193 whole entry): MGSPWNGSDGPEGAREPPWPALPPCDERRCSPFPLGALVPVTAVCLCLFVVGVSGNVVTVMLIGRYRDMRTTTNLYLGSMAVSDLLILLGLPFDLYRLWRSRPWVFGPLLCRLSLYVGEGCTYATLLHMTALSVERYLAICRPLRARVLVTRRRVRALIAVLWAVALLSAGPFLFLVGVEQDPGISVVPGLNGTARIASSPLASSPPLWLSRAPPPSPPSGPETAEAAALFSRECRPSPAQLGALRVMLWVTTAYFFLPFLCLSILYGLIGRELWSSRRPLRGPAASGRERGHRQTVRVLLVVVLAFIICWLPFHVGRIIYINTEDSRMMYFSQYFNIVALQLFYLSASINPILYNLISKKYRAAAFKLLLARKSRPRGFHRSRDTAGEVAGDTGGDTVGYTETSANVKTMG
Sequence of CYP2C9 (P11712 whole entry): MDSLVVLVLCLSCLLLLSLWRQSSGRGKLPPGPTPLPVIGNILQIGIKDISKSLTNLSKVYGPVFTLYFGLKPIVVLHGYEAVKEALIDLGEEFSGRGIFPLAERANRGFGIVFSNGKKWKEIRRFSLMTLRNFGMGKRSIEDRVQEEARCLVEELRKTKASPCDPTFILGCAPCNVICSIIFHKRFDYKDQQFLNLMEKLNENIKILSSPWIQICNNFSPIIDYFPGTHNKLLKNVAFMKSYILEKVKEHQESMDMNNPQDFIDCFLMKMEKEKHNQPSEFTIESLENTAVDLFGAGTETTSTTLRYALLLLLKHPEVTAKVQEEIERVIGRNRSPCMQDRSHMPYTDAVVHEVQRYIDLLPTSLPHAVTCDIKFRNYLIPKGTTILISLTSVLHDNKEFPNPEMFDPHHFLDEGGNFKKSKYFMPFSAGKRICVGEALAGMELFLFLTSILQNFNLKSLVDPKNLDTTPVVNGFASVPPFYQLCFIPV
Sequence of CYP2D6 (P10635 whole entry): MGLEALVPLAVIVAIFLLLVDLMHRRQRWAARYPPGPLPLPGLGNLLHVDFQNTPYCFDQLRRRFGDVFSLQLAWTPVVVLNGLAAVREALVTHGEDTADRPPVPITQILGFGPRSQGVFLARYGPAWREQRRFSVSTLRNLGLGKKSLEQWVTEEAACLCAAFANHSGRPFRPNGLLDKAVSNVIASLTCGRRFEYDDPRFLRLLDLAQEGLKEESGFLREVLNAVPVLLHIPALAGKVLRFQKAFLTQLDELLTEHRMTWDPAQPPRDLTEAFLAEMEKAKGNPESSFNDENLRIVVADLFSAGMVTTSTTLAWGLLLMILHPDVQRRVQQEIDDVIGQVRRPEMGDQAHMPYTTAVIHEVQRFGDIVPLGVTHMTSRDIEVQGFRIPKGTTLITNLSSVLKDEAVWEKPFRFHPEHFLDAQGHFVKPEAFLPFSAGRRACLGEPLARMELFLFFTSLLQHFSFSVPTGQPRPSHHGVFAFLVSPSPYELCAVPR

| Compound | activity [1] [%] | EC50 [2] [nM] | EC50 [3] [nM] | logD [5] | also measured |
| --- | --- | --- | --- | --- | --- |
| CC[C@H]1CN(Cc2ccc(N(C)C(=O)[C@H]3CC[C@H](Oc4ccnc(C#N)c4)CC3)cc2C)CCN1 | 68 | 11 | 1.2 | 1 | EC50 [4]: 4.8 nM |
| C[C@H]1CN(Cc2ccc(NC(=O)[C@H]3CC[C@H](Oc4ccc(F)cc4)CC3)cc2)CCN1 |  | > 10000 | > 10000 |  |  |
| C[C@@H]1CN(Cc2ccc(-c3cccnc3C(=O)N3CCC(Cc4ccc(F)cc4)CC3)cc2)C[C@H](C)N1 |  | 51 | 3.8 |  | Ratio EC50 [6]: 20 |
| Cc1cc(N(C)C(=O)[C@H]2CC[C@H](Oc3cccc(CC(C)(C)O)c3)CC2)ccc1CN1CCN[C@@H](C)C1 | 50 | 4.3 | 1.1 | 2 |  |
| CCOCc1cccc(N[C@H]2CC[C@H](C(=O)N(C)c3ccc(CN4CCN[C@@H](C)C4)c(C)c3)CC2)c1 | 61 | 2.6 |  | 2.5 |  |
| Cc1cc(N(C)C(=O)[C@H]2CC[C@H](Oc3ccc(F)c(CO)c3)CC2)ccc1CN1CCN[C@@H](C)C1 | 54 | 7.5 | 0.62 | 1.6 |  |
| Cc1cc(CN2CCN[C@@H](C)C2)ccc1N(C)C(=O)[C@H]1CC[C@H](Oc2ccc(F)cc2)CC1 | 40 | 240 |  |  |  |
| CC[C@H]1CN(Cc2ccc(N(C)C(=O)[C@H]3CC[C@H](Oc4ccc(F)cc4)CC3)cc2C)CCN1 | 29 | 350 |  |  |  |
| C[C@H]1CN(Cc2ccc(N(C)C(=O)[C@H]3CC[C@H](Oc4ccc(F)cc4)CC3)cc2Cl)CCN1 | 23 | 2 | 0.18 |  |  |
| C[C@H]1CN(Cc2ccc(CC(=O)N3CCC(Nc4cccc(F)c4)CC3)cc2)CCN1 [CAMICINAL] |  | 970 | 42 |  | EC50 [4]: 82.6 nM |
| Cc1cc(N(C)C(=O)[C@H]2CC[C@H](Oc3cc(CO)ccc3C)CC2)ccc1CN1CCN[C@@H](C)C1 | 54 | 5.6 | 1 |  |  |
| Cc1cc(N(C)C(=O)[C@H]2CC[C@H](Oc3cccc(CO)c3)CC2)ccc1CN1CCN[C@@H](C)C1 | 74 | 5.3 | 1.3 | 1.3 | fraction unbound [7]: 0.228; fraction unbound [8]: 0.335; inhibition at 10 µM [9]: 8.8%; Papp [10]: 48 ×10⁻⁶ cm/s; inhibition at 10 µM [11]: 3.1%; inhibition at 10 µM [12]: 5.3%; Ratio EC50 [13]: 11; EC50 [4]: 7.3 nM; Papp [14]: 1.5 ×10⁻⁶ cm/s; inhibition at 10 µM [15]: 13% |
| C[C@H]1CN(Cc2ccc(-c3cccnc3N3CCC(Nc4cccc(F)c4)CC3)cc2)CCN1 |  | 18 | 1.7 |  |  |
| C[C@H]1CN(Cc2ccc(N(C)C(=O)[C@H]3CC[C@H](Oc4ccc(F)cc4)CC3)cc2)CCN1 | 44 | 55 | 2.6 |  | EC50 [4]: 28 nM |
| Cc1cc(N(C)C(=O)[C@H]2CC[C@H](Oc3cccc(CCO)c3)CC2)ccc1CN1CCN[C@@H](C)C1 | 60 | 4.7 | 0.51 | 1.3 |  |
| Cc1cc(N(C)C(=O)[C@H]2CC[C@H](Oc3ccc(F)cc3)CC2)ccc1CN1CCNCC1 | 82 | 46 | 1.3 |  |  |
| Cc1cc(N(C)C(=O)[C@H]2CC[C@H](Oc3ccc(Cl)c(CO)c3)CC2)ccc1CN1CCN[C@@H](C)C1 | 56 | 1.8 | 0.13 |  |  |
| Cc1cc(N(C)C(=O)[C@H]2CC[C@H](Oc3cccc(CC(=O)NC(C)C)c3)CC2)ccc1CN1CCN[C@@H](C)C1 | 68 | 1.6 | 0.26 | 1.8 |  |
| Cc1cc(N(C)C(=O)[C@H]2CC[C@H](Oc3ccc(F)cc3)CC2)ccc1CN1CCN[C@@H](C)C1 | 32 | 2.1 | 0.21 | 2.5 |  |
| Cc1cc(N(C)C(=O)[C@H]2CC[C@H](Oc3cccc(C(=O)O)c3)CC2)ccc1CN1CCN[C@@H](C)C1 | 101 | > 10000 | 1300 | -0.4 |  |
| CC[C@H](C)[C@H](NC(=O)[C@@H]1CCCN1C(=O)[C@@H](NC(=O)[C@@H](N)Cc1ccccc1)C(C)C)C(=O)N[C@@H](Cc1ccccc1)C(=O)N[C@H](C(=O)N[C@@H](Cc1ccc(O)cc1)C(=O)NCC(=O)N[C@@H](CCC(=O)O)C(=O)N[C@@H](CC(C)C)C(=O)N[C@@H](CCC(N)=O)C(=O)N[C@@H](CCCNC(=N)N)C(=O)N[C@@H](CCSC)C(=O)N[C@@H](CCC(N)=O)C(=O)N[C@@H](CCC(=O)O)C(=O)N[C@@H](CCCCN)C(=O)N[C@@H](CCC(=O)O)C(=O)N[C@@H](CCCNC(=N)N)C(=O)N[C@@H](CC(N)=O)C(=O)N[C@@H](CCCCN)C(=O)NCC(=O)N[C@@H](CCC(N)=O)C(=O)O)[C@@H](C)O |  | 0.97 | 0.16 |  | EC50 [4]: 0.23 nM |
| Cc1cc(N(C)C(=O)[C@H]2CC[C@H](Oc3ccc(F)cn3)CC2)ccc1CN1CCN[C@@H](C)C1 | 47 | 4.6 | 0.26 | 1.9 |  |
